# “Also recorded” adds a separate entry of the source. Read-outs that look alike come from different tables or passages of the source.
# Legend:
# [1] = test system: HT-1080 cells; assay: Rescue activity of Fer-1 analogs: inhibition of erastin-, IKE- or RSL3-induced death (Alamar Blue viability); assay type: cell-based; conditions: Homo sapiens
# Protocol: HT-1080 cells are cultured in DMEM containing 10% fetal bovine serum, 1% supplemented non-essential amino acids and 1% pen/strep mixture (Gibco) and maintained in a humidified environment at 37° C. with 5% CO2 in a tissue culture incubator. 1,000 HT-1080 cells are seeded per well in duplicate 384-well plates (Corning) using a BioMek FX liquid handling robot (Beckman Coulter). The next day, the medium is replaced with 36 μL of medium containing 10 μM erastin with 4 μL of medium containing a dilution series (previously prepared) of DMSO, Fer-1 (positive control) or Fer-1 analogs. […] Cells are incubated a further 6 hours and then the Alamar Blue fluorescence intensity recorded using a Victor 3 platereader (PerkinElmer)(ex/em 530/590). All experiments are performed at least twice and the background (no cells)-subtracted Alamar Blue values for each combination are averaged between replicates. The same procedure was repeated by replacing erastin (10 μM) with IKE (3 μM) or RSL3 (0.2 μM).
# [2] = test system: HT-1080 cells; assay: Rescue activity of selected Fer-1 analogs, dose-response in HT-1080 cells (cell titer glo); assay type: cell-based
# Protocol: Selected Fer-1 analogs containing a pyridine moiety (FIG. 4) were tested to examine their efficacy and overall potency in inhibiting ferroptosis. For each of these compounds, dose-response curves were generated in HT-1080 cells looking at the effectiveness of the molecules in inhibiting ferroptosis induced by either 3 μM IKE or 0.2 μM RSL3, Fer-1 was used as a positive control. For each dose-response curve, 1,000 cells/well were seeded in a 384 well plate and allowed to adhere overnight prior to treating with compound from a daughter plate. Cells were treated for 48 hours, unless otherwise noted, prior to viability being analyzed using cell titer glo (40 μL per well). All liquid handling was performed using the BioMek. All samples were prepared in triplicate, unless otherwise noted.
# [3] = Microsomal stability, mouse liver microsomes (Table 1); assay type: in vitro ADME, Mouse: CD1; conditions: for average % remaining after 120 minutes: compounds with t1/2 > 120 min, in parentheses; for half-life: liver microsomes
# Protocol: Each compound (1 μM) is incubated with mouse plasma, for 4 hours at 37° C., with shaking at 100 rpm. The concentration of compound in the buffer and plasma chambers is determined using LC-MS/MS. Metabolism of each compound is predicted using Sites of Metabolism (Schrodinger Suite), which combines intrinsic reactivity analysis (Hammett-Taft) with induced fit docking against 2C9, 2D6 and 3A4. This approach identifies 90% of known metabolism sites and has a false positive rate of 17%. The in vitro metabolic stability of each compound in mouse liver microsomes is determined. Pooled mouse liver microsomes are prepared and stored at −80° C. until needed. […]
# [4] = test system: HT-1080 cells; assay: Cell viability assays in HT-1080 cells, ferroptosis induced by IKE or RSL3 (Example 8); assay type: cell-based
# Protocol: Cell culture assays were incubated at 37° C. with 5% CO2. HT-1080 cells were grown in DMEM (Corning) supplemented with 10% FBS (Life Technologies), 1% Penicillin-Streptomycin 10,000 U/mL (Gibco), and 1% MEM Non-Essential Amino Acids Solution 100× (Gibco). For cell viability assays, cells were trypsinized, counted, and seeded into 384-well white polypropylene plates at 1,000 cells/well, unless otherwise specified. After allowing cells to adhere overnight, compounds in DMSO stocks were arrayed in a 16-point dilution series prepared in a mother plate, and treated from a daughter plate, [DMSO]=0.28%. After 24 or 48 h, 50% CellTiter-Glo (Promega) 50% cell culture medium was added to each well and incubated at room temperature with shaking for 15 min. Luminescence was measured using a Victor X5 plate reader (PerkinElmer). All cell viability data were normalized to the DMSO vehicle condition. […] All 384w measurements were performed in triplicate
# We first evaluated the efficacy of four pyridine analogs, TH-2-9-1, TH-2-31, TH-2-37-1, and TH-2-37-2, in suppressing ferroptosis induced by IKE and RSL3 in HT-1080 cells. […] We sought to determine whether incorporation of pyridine changed stability in mouse liver microsomes.
# [5] = Microsomal Stability Assay (Examples 6 and 8); assay type: in vitro ADME, mouse; conditions: assessed over two hours
# Protocol: (§1) To a 96-well polypropylene plate was added phosphate buffer (182.2 μL, pH 7.4, 100 mM) followed by addition of NADPH-regenerating system solution A (10 μL), and NADPH regenerating system solution B (2 μL) (Corning Gentest 3P NADPH regenerating system solution A (#451220) and B (#451200)). A stock solution of analog (0.8 μL. 5 mM) or fer-1 (positive control) was added and the mixture was warmed to 37° C. for 5 min. Mouse microsomes (CD-1, 20 mg/mL, Life Technologies) (5 μL, thawed in 37° C. water bath before use) were added. The resulting reaction mixture was kept at 37° C. with gentle agitation for the duration of the experiment. At selected time points (0, 1, 5, 10, 20, 30, 60 and 120 min) aliquots (15 μL) were withdrawn from the plate and quenched upon addition to cold methanol (60 μL), containing an internal standard (5 μM) in a separate 96-well polypropylene plate. At the completion of the final time-point, the samples were centrifuged at 4,000 rpm for 5 min at 4° C. The supernatant (40 μL) was withdrawn and transferred to a sample vial with insert. The samples were analyzed by LC-MS. LC-MS analysis was performed on a platform comprising a Thermo Scientific Dionex Ultimate 3000 and a Bruker amaZon SL equipped with an electrospray ionization source controlled by Bruker Hystar 3.2. Chromatographic separation was performed by injecting 5 μL of the sample onto an Agilent Eclipse Plus C18 column (2.1×50 mm, 3.5 μm) maintained at 20° C. The flow rate was maintained at 400 μL/min. The initial flow conditions were 80% solvent A (water containing 0.1% acetic acid) and 20% solvent B (methanol containing 0.1% acetic acid). Solvent B was raised to 80% over 0.50 min by 1.50 min. Solvent B was raised to 100% by 5.00 min and held there for 3.25 min. […] All analogs were detected in positive mode as [M+H]*. The percent of compound remaining at each time-point was calculated as the ratio of the integrated compound peak over the internal standard peak and standardized to the t=0 time-point. Values were plotted in GraphPad Prism 9 and fit with a one phase decay.
# as §1, with “and NADPH-regenerating” for “and NADPH regenerating”, “rpm (1872 g)” for “rpm”, “[M+H]*. […]” for “[M+H]*. The percent of compound remaining at each time-point was calculated as the ratio of the integrated compound peak over the internal standard peak and standardized to the t=0 time-point. Values were plotted in GraphPad Prism 9 and fit with a one phase decay.”
# [6] = HT-1080, ^b 50% viability, HT-1080 treated with 3 μM IKE
# [7] = HT-1080, ^c 50% viability, HT-1080 treated with 0.2 μM RSL3
# [8] = HT-1080, no footnote marker printed, inducer not stated
# [9] = CD1, mouse, Mouse: CD1, read-out: Microsomal Stability t1/2
# [10] = HT-1080, ^a 50% viability, HT-1080 cells treated with 10 μM erastin
structure (smiles),measurement,setting,value
Cc1noc(-c2cnc(NC3CCCCC3)c(N)c2)n1 [TH-2-30],EC50,[1]; [6],461 nM
same,EC50,[1]; [7],118 nM
same,"potency compared, in words","[2]; 3 μM IKE, 0.2 μM RSL3, 10 μM erastin",relatively less potent; also recorded: potency comparable to Fer-1 against IKE and RSL3
same,toxicity (overall drop in viability),[2]; at 10 μM compound,appeared to be toxic
"COc1cnc(NC2CCCCC2)c(N)c1 [TH-2-5, N^2-cyclohexyl-5-methoxypyridine-2,3-diamine]",EC50,[1]; [8],> 350 nM
same,death observed with RSL3,"[2]; 0.2 μM RSL3, inhibitor range 10 μM-0 μM",No death was observed
CCCCCCNc1cc(C(=O)OC(C)(C)C)c(F)cc1NC12CC3CC(CC(C3)C1)C2 [CFI-A8],EC50,[1]; [6],20 nM
same,EC50,[1]; [7],19 nM
same,Microsomal Stability t1/2,[3]; Mouse: CD1,Mouse: >120 min
same,average % remaining after 120 minutes,[3]; Mouse: CD1,min (76.4%) Human: TBD Rat: TBD Dog: Pig: TBD
"CC(C)(C)OC(=O)c1ccc(NC2CCCCC2)c(NC23CC4CC(CC(C4)C2)C3)c1 [DL034, tert-butyl 3-(((3s,5s,7s)-adamantan-1-yl)amino)-4-(cyclohexylamino)benzoate]","potency relative to fer-1 at suppressing ferroptosis, in words",[4],less potent than fer-1
same,"microsomal stability / half-life, in words",[5],half-lives greater than two hours
"CC(C)(C)OC(=O)c1cc(NC2CCCCC2)c(NC23CC4CC(CC(C4)C2)C3)cc1Cl [AZII11, tert-butyl 4-(((3s,5s,7s)-adamantan-1-yl)amino)-2-chloro-5-(cyclohexylamino)benzoate]","potency relative to fer-1 at suppressing ferroptosis, in words",[4],less potent than fer-1
same,"microsomal stability / half-life, in words",[5],half-lives greater than two hours
C=C/C=C(/CN/C(=C/C(=C\C)C(=O)OCC)CNC(CC)CCC)C(=C)O (stereo not drawn) [CFI-M82],Microsomal Stability t1/2,[3]; Mouse: CD1,Mouse: 10 min
"CC(C)(C)OC(=O)c1cc(NC2CCCCC2)c(NC23CC4CC(CC(C4)C2)C3)cc1F [AZIII8, tert-butyl 4-(((3s,5s,7s)-adamantan-1-yl)amino)-5-(cyclohexylamino)-2-fluorobenzoate]","potency relative to fer-1 at suppressing ferroptosis, in words",[4],more potent than fer-1
same,"microsomal stability / half-life, in words",[5],half-lives greater than two hours
"Cc1noc(-c2ccc(NC34CC5CC(CC(C5)C3)C4)c(NC3CCCCC3)c2)n1 [PHB4083, N1-((3s,5s,7s)-adamantan-1-yl)-N2-cyclohexyl-4-(3-methyl-1,2,4-oxadiazol-5-yl)benzene-1,2-diamine]","potency relative to fer-1 at suppressing ferroptosis, in words",[4],more potent than fer-1
same,"microsomal stability / half-life, in words",[5],half-lives greater than two hours
CC(C)(C)OC(=O)c1ccc(NC2CCCCC2)c(NC23CC4CC(CC(C4)C2)C3)c1 [CFI-L034],EC50,[1]; [8],166 nM
same,half-life,"[3]; CD1 (mouse), mouse, human, in either mouse or human liver microsomes, read-out: T1/2",> 2 h
same,half-life,[3]; [9],> 2 h
same,average % remaining after 120 minutes,[3]; Mouse: CD1,min (60.2%) Human: TBD Rat: TBD Dog: Pig: TBD
Cc1noc(-c2ccc(NC34CC5CC(CC(C5)C3)C4)c(N)c2)n1 [CFI-4066],EC50,[1]; [10],123 nM
same,half-life,[3]; [9],0.503 to 0.54 h
CCCCCCNc1cc(C(=O)OC(C)(C)C)c(C)cc1NC12CC3CC(CC(C3)C1)C2 [CFI-A9],EC50,[1]; [10],65 nM
same,Microsomal Stability t1/2,[3]; Mouse: CD1,Mouse: >120 min
same,average % remaining after 120 minutes,[3]; Mouse: CD1,min (83.6%) Human: TBD Rat: TBD Dog Pig: TBD
"Cc1cc(NC23CC4CC(CC(C4)C2)C3)c(NC2CCCCC2)cc1C(=O)OC(C)(C)C [AZIII9, tert-butyl 4-(((3s,5s,7s)-adamantan-1-yl)amino)-5-(cyclohexylamino)-2-methylbenzoate]","potency relative to fer-1 at suppressing ferroptosis, in words",[4],less potent than fer-1
same,"microsomal stability / half-life, in words",[5],half-lives greater than two hours; also recorded: the most stable compound tested
